Test results reported in US20240190856A1, “MELANOCORTIN-4 RECEPTOR AGONIST” (LG CHEM, LTD., priority 2021, published 2024).
Structures can show the parent of a compound that is named as a salt.

Molecular target: MC4R (Homo sapiens, UniProt P32245)
Test: Binding affinity (125I-NDP-α-MSH displacement, membranes of HEK-293 cells expressing MC4R)
Parameters: expressed in transfected cells; host or cells: HEK-293 cells, membrane preparation
Conditions: 0.02 nM 125I-NDP-α-MSH, 37° C. for two hours, pH 7.0
From the text: Five subtypes of melanocortin receptor (MCR) in vivo are known, and it is known that MC4R, which is Subtype 4, is involved in energy metabolism and weight control. Since other MCR subtypes are involved in the regulation of various functions in vivo such as skin pigmentation, energy homeostasis, and exocrine functions, securing selectivity for MC4R of MC4R agonist compounds is very important in preventing possible side effects in the future. Therefore, the receptor binding abilities of MC4R agonists for each MCR subtype were measured.
After the CHO-K 1 cell line expressing human recombinant MC1R and the HEK-293 cell lines expressing MC3R, MC4R and MC5R were established, membranes were collected from each cell line. In a 96-well cell culture plate, 3 μg MC1R membrane and 0.04 nM ^125I-NDP-α-MSH per well were reacted at 37° C. for two hours. 3 μg MC3R and MC5R membrane and 0.035 nM ^125I-NDP-α-MSH were reacted at 37° C. for one hour, and […] MC4R membrane and 0.02 nM ^125I-NDP-α-MSH were reacted at 37° C. for two hours. At this time, 25 mM HEPES-KOH adsorption buffer (pH 7.0) containing MCR agonist diluted at each step concentration was added to each well and reacted. The reacted solution was transferred to a filter and washed with an adsorption buffer, and then radioactivity was measured. The value excluding the non-specific binding amount in the presence of 1 μM (MC1R) and 3 μM (MC3R, MC4R, MC5R) of NDP-α-MSH from each total binding amount was used as specific binding amounts of ^125I-NDP-α-MSH. The degree to which the ^125I-NDP-a-MSH specific binding was inhibited by the agonist diluted at each step concentration was measured. IC50 was expressed as the concentration of each agonist that inhibited specific binding of 50% of ^125I-NDP-α-MSH.
Tables 4-1 and 4-2 show the results of measuring the binding of melanocortin receptors of the compounds obtained by the above experiment in Ki (nM) units.

Chain of MC4R (P32245 whole entry): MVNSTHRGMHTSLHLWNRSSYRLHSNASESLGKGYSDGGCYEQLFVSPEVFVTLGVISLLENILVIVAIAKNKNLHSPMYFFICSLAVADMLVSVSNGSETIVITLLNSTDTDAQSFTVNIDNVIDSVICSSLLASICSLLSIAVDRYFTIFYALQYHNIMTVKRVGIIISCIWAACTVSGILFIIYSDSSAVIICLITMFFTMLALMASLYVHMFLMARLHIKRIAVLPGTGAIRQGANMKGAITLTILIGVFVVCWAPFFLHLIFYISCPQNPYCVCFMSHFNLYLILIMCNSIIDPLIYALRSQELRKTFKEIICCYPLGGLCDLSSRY

Row | SMILES | Ki (Table 4-1) | Ki (Table 4-2)
1 | CC(C)(C)C(=O)N([C@H]1C[C@@H](C(=O)N2CCOCC2)N(C(=O)[C@@H]2CN(C(C)(C)C)C[C@H]2c2ccc(F)cc2F)C1)[C@H]1CC[C@@H](C)CC1 [Example 1, N-((3S,5S)-1-((3S,4R)-1-(tert-butyl)-4-(2,4-difluorophenyl)pyrrolidine-3-carbonyl)-5-(morpholine-4-carbonyl)pyrrolidin-3-yl)-N-((1s,4R)-4-methylcyclohexyl)pivalamide hydrochloride] | 74 nM | –
2 | CC(C)C(=O)N([C@H]1C[C@@H](C(=O)N2CCOCC2)N(C(=O)[C@@H]2CN(C(C)(C)C)C[C@H]2c2ccc(F)cc2F)C1)[C@H]1CC[C@@H](C)CC1 [Example 2, N-((3S,5S)-1-((3S,4R)-1-(tert-butyl)-4-(2,4-difluorophenyl)pyrrolidine-3-carbonyl)-5-(morpholine-4-carbonyl)pyrrolidin-3-yl)-N-((1s,4R)-4-methylcyclohexyl)isobutyramide hydrochloride] | 240 nM | –
3 | CC(C)C(=O)N([C@H]1C[C@@H](C(=O)N2CCOCC2)N(C(=O)[C@@H]2CN(C(C)(C)C)C[C@H]2c2ccc(Cl)cc2F)C1)[C@H]1CC[C@@H](C)CC1 [Example 3, N-((3S,5S)-1-((3S,4R)-1-(tert-butyl)-4-(4-chloro-2-fluorophenyl)pyrrolidine-3-carbonyl)-5-(morpholine-4-carbonyl)pyrrolidin-3-yl)-N-((1s,4R)-4-methylcyclohexyl)isobutyramide hydrochloride] | – | 86 nM
4 | CC(C)(C)C(=O)N([C@H]1C[C@@H](C(=O)N2CCOCC2)N(C(=O)[C@@H]2CN(C(C)(C)C)C[C@H]2c2ccc(Cl)cc2F)C1)[C@H]1CC[C@@H](C)CC1 [Example 4, N-((3S,5S)-1-((3S,4R)-1-(tert-butyl)-4-(4-chloro-2-fluorophenyl)pyrrolidine-3-carbonyl)-5-(morpholine-4-carbonyl)pyrrolidin-3-yl)-N-((1s,4R)-4-methylcyclohexyl)pivalamide hydrochloride] | 30 nM | –
5 | CC1(C)CCC(N(C(=O)C(C)(C)C)[C@H]2C[C@@H](C(=O)N3CCOCC3)N(C(=O)[C@@H]3CN(C(C)(C)C)C[C@H]3c3ccc(Cl)cc3)C2)CC1 [Example 6, N-((3S,5S)-1-((3S,4R)-1-(tert-butyl)-4-(4-chlorophenyl)pyrrolidine-3-carbonyl)-5-(morpholine-4-carbonyl)pyrrolidin-3-yl)-N-(4,4-dimethylcyclohexyl)pivalamide hydrochloride] | – | 32 nM
